Ends that are not written are not given here.
Legend:
[1] = tested on: rabbit ileal mucosa; settings: cited from earlier work
[2] = tested on: rabbit ileum; assay: Tissue resistance (Rt) of rabbit ileum mounted in Ussing chambers; assay type: cell-based
Method: Next, rabbit ileum mounted in Ussing chambers as described above, were exposed to 100 μg of FZI/0 (SEQ ID NO:15), 100 μg of FZI/1 (SEQ ID NO:29), 1.0 μg of 6×His-ZOT (obtained as described in Example 1 of U.S. patent application Ser. No. 09/127,815, filed Aug. 3, 1998), 1.0 μg of zonulini (obtained as described in Example 3 of U.S. patent application Ser. No. 09/127,815, filed Aug. 3, 1998), or 1.0 μg of zonulinh (obtained as described in Example 3of U.S. patent application Ser. No. 09/127,815, filed Aug. 3, 1998), alone; or pre-exposed for 20 min to 100 μg of FZI/0 or FZI/1, at which time 1.0 μg of 6×His-ZOT, 1.0 μg of zonulini, or 1.0 μg of zonulinh, was added. ΔRt was then calculated as described above.

[3] = tested on: BB/Wor rats; assay: BB/Wor diabetic rat model, progression to diabetes; assay type: in vivo; settings: 10 μg/ml in drinking water
Method: Both groups were maintained on a standard diet of rat chow (Harlan Teklab Diet #7012). All food and water were previously autoclaved. Each day, daily water intake was measured and 100 ml of fresh water was given. The treated group received 10 μg/ml of the zonulin peptide antagonist (SEQ ID NO:15) supplemented in the drinking water. The rats were housed in hepa-filter cages.
Diabetes in the rats was diagnosed as follows: The rats were weighed twice a week. Blood glucose was determined weekly using the OneTouch® glucose monitoring system (Johnson & Johnson). Each week, reagent strips for urinalysis were used to monitor glucose (Diastix®) and ketones (Ketositx®) (Bayer). Rats with a blood glucose>250 mg/dl were fasted overnight, and blood glucose levels>200 mg/dl were considered diabetic.
Following clinical presentation of diabetes, the rats were sacrificed as follows: the rats were anesthesized using ketamine anesthesia and a midline incision was made allowing access to the heart. An 18 G needle was placed into the heart and death occurred by exsanguinations. Then, zonulin assays were conducted as described above. […] According to Biomedical Research Models, Inc., 80% of diabetes prone rats present with diabetes by age 80 days.

## ZOT: zonula occludens toxin elaborated by V. cholerae
[1]
  Na+-glucose coupled active transport: does not affect
  cytotoxicity: not cytotoxic
  transepithelial resistance: fails to completely abolish

## FZI/1: second synthetic peptide: Gly in position 8, Val in position 12, Gln in position 13 changed to Val, Gly, Arg (VGVLGRPG; tight junction antagonist peptide) [reference compound]
[2]; pre-exposure for 20 min to 100 μg peptide
  inhibitory effect on ZOT, zonulini and zonulinh action on Rt: completely ablated

## GGVLVQPG [FZI/0, synthetic octapeptide corresponding to amino acid residues 8-15 of human fetal zonulini]
[2]; 100 μg peptide alone, rabbit ileum
  change in Rt as compared to the negative control: 0.5%
[2]; pre-treatment for 20 min with 100 μg peptide, then 1.0 μg 6×His-ZOT
  decrease of the effect of ZOT on Rt: 75%
[2]; pre-treatment for 20 min with 100 μg peptide, then 1.0 μg zonulinh
  decrease of the effect of zonulinh on Rt: 100%
[2]; pre-treatment for 20 min with 100 μg peptide, then 1.0 μg zonulini
  decrease of the effect of zonulini on Rt: 97%
[3]; endpoint age 80 days
  treated rats that did not develop diabetes: 60%
[3]; n=5, control rats 80%
  rats that developed diabetes by age 80 days: 40%

From patent US8183211B2, “Pharmaceutical compositions for inhibiting intestinal permeability” (University of Maryland, Baltimore, priority 2000, dated 2012)
